Reference: PubChem BioAssay AID248 (DTP/NCI, 2004)
Several values for one entry are separate records, joined by “and”; a condition that tells them apart may be missing. Equal values may be shown once. Toxic doses and inconclusive results are not listed. Cut-off read from the data, not from the text of the source: active = T/C of 150% or more; inactive = T/C below 125%.

Test system: L1210 leukemia ip in BDF1 mice, survival T/C
Assay: NCI In Vivo Anticancer Drug Screen. Data for tumor model L1210 Leukemia (intraperitoneal) in B6D2F1 (BDF1) mice
Settings: endpoint: mean survival time, higher = longer survival
How it was run: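 Survival endpoint. Drug-treated group vs vehicle group, expressed as T divided by C. Tumor passaged by transplantation.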

[1] = dose: 100.0 mg/kg/injection, schedule: Q01DX009 (ip), vehicle: Klucel (hydroxypropylcellulose) (HPC)
[2] = dose: 100.0 mg/kg/injection, schedule: Q04DX003 (ip), vehicle: Klucel (hydroxypropylcellulose) (HPC)
[3] = dose: 200.0 mg/kg/injection, schedule: Q01DX009 (ip), vehicle: Klucel (hydroxypropylcellulose) (HPC)
[4] = dose: 200.0 mg/kg/injection, schedule: Q04DX003 (ip), vehicle: Klucel (hydroxypropylcellulose) (HPC)
[5] = dose: 400.0 mg/kg/injection, schedule: Q01DX009 (ip), vehicle: Klucel (hydroxypropylcellulose) (HPC)
[6] = dose: 400.0 mg/kg/injection, schedule: Q04DX003 (ip), vehicle: Klucel (hydroxypropylcellulose) (HPC)
[7] = dose: 100.0 mg/kg/injection, schedule: Q04DX003 (ip), vehicle: saline
[8] = dose: 200.0 mg/kg/injection, schedule: Q04DX003 (ip), vehicle: saline
[9] = dose: 400.0 mg/kg/injection, schedule: Q04DX003 (ip), vehicle: saline
[10] = dose: 100.0 mg/kg/injection, schedule: Q01DX001 (ip), vehicle: saline
[11] = dose: 200.0 mg/kg/injection, schedule: Q01DX001 (ip), vehicle: saline
[12] = dose: 400.0 mg/kg/injection, schedule: Q01DX001 (ip), vehicle: saline
[13] = dose: 100.0 mg/kg/injection, schedule: Q01DX009 (ip), vehicle: saline
[14] = dose: 200.0 mg/kg/injection, schedule: Q01DX009 (ip), vehicle: saline
[15] = dose: 400.0 mg/kg/injection, schedule: Q01DX009 (ip), vehicle: saline
[16] = dose: 50.0 mg/kg/injection, schedule: Q01DX001 (ip), vehicle: saline
[17] = dose: 50.0 mg/kg/injection, schedule: Q01DX009 (ip), vehicle: saline with Tween-80
[18] = dose: 100.0 mg/kg/injection, schedule: Q01DX009 (ip), vehicle: saline with Tween-80
[19] = dose: 200.0 mg/kg/injection, schedule: Q01DX009 (ip), vehicle: saline with Tween-80
[20] = dose: 100.0 mg/kg/injection, schedule: Q04DX002 (ip), vehicle: Klucel (hydroxypropylcellulose) (HPC)
[21] = dose: 200.0 mg/kg/injection, schedule: Q04DX002 (ip), vehicle: Klucel (hydroxypropylcellulose) (HPC)
[22] = dose: 400.0 mg/kg/injection, schedule: Q04DX002 (ip), vehicle: Klucel (hydroxypropylcellulose) (HPC)

Measured: T/C

BrCCCC1CCCCC1
inactive: [1] 104 % of control | [2] 100 % of control | [3] 97 % of control | [4] 104 % of control | [5] 92 % of control | [6] 105 % of control

C=CCN(Cc1cnc2nc(N)nc(N)c2n1)c1ccc(C(=O)NC(CCC(=O)O)C(=O)O)cc1 (stereo not given)
inactive: dose: 1.5 mg/kg/injection, schedule: Q01DX009 (ip), vehicle: sodium bicarbonate 108 % of control | dose: 3.0 mg/kg/injection, schedule: Q01DX009 (ip), vehicle: sodium bicarbonate 116 % of control | dose: 6.0 mg/kg/injection, schedule: Q01DX009 (ip), vehicle: sodium bicarbonate 118 % of control

CC(C)=CCNc1ncnc2c1c(C(N)=O)cn2C1OC(CO)C(O)C1O (stereo not given)
inactive: dose: 100.0 mg/kg/injection, schedule: Q01DX005 (ip), vehicle: saline 107 % of control | dose: 200.0 mg/kg/injection, schedule: Q01DX005 (ip), vehicle: saline 123 % of control

COc1cc(OCc2ccccc2)c([N+](=O)[O-])cc1OC
inactive: [7] 116 % of control | [8] 124 % of control | [9] 112 % of control

COc1cc(/C(C)=C2\SC(=O)NC2=O)ccc1O
inactive: [10] 106 % of control | [11] 95 % of control | [12] 98 % of control

O=c1[nH]cnc2c1nnn2C1CC(CO)C(O)C1O (stereo not given)
inactive: dose: 50.0 mg/kg/injection, schedule: Q04DX003 (ip), vehicle: saline 92 % of control | [7] 92 % of control | [8] 96 % of control

O=C(c1ccccc1)C1CC1(C(=O)c1ccccc1)c1ccccc1 (stereo not given)
inactive: dose: 100.0 mg/kg/injection, schedule: Q01DX001 (ip), vehicle: saline with Tween-80 103 % of control | dose: 200.0 mg/kg/injection, schedule: Q01DX001 (ip), vehicle: saline with Tween-80 103 % of control | dose: 400.0 mg/kg/injection, schedule: Q01DX001 (ip), vehicle: saline with Tween-80 88 % of control

CCOCC(OC)OC
inactive: [13] 95 % of control | [7] 93 % of control | [14] 97 % of control | [8] 98 % of control | [15] 97 % of control | [9] 107 % of control

CC(=O)OCC1OC(COC(C)=O)(c2ccc(C)cc2)C(OC(C)=O)C1OC(C)=O (stereo not given)
inactive: [16] 97 % of control | [10] 103 % of control | [11] 94 % of control | [12] 100 % of control

O=C(N/N=C/c1ccccc1F)c1ccc(Cl)cc1
inactive: [17] 96 % of control | [18] 96 % of control | [19] 96 % of control

O=[N+]([O-])/C=C/C=C/c1ccco1
inactive: dose: 6.25 mg/kg/injection, schedule: Q04DX002 (ip), vehicle: saline with Tween-80 97 % of control | dose: 12.5 mg/kg/injection, schedule: Q04DX002 (ip), vehicle: saline with Tween-80 101 % of control | dose: 25.0 mg/kg/injection, schedule: Q04DX002 (ip), vehicle: saline with Tween-80 97 % of control and 90 % of control

OCC1(CO)COC(c2ccccc2)OC1
inactive: dose: 25.0 mg/kg/injection, schedule: Q01DX009 (ip), vehicle: Klucel (hydroxypropylcellulose) (HPC) 101 % of control | dose: 50.0 mg/kg/injection, schedule: Q01DX009 (ip), vehicle: Klucel (hydroxypropylcellulose) (HPC) 101 % of control | dose: 50.0 mg/kg/injection, schedule: Q04DX003 (ip), vehicle: Klucel (hydroxypropylcellulose) (HPC) 97 % of control | [1] 108 % of control | [2] 90 % of control

O=C(O)CCCc1cc(O)c2c(c1O)C(=O)c1ccccc1C2=O
inactive: dose: 100.0 mg/kg/injection, schedule: Q01DX001 (ip), vehicle: saline sonified 98 % of control | dose: 200.0 mg/kg/injection, schedule: Q01DX001 (ip), vehicle: saline sonified 102 % of control | dose: 400.0 mg/kg/injection, schedule: Q01DX001 (ip), vehicle: saline sonified 118 % of control

O=C(Nc1cccc(F)c1)Nc1ccccc1C(F)(F)F
inactive: [1] 97 % of control | [3] 91 % of control | [5] 94 % of control

O=C(/C=C/C(=O)Oc1c(Cl)c(Cl)c(Cl)c(Cl)c1Cl)Oc1c(Cl)c(Cl)c(Cl)c(Cl)c1Cl
inactive: [1] 100 % of control | [2] 111 % of control | [3] 104 % of control | [4] 93 % of control | [5] 100 % of control | [6] 105 % of control

O=S(=O)(O)n1nc2ccccc2c1-c1ccccc1
inactive: dose: 100.0 mg/kg/injection, schedule: Q04DX002 (ip), vehicle: saline with Tween-80 96 % of control | dose: 200.0 mg/kg/injection, schedule: Q04DX002 (ip), vehicle: saline with Tween-80 96 % of control

COc1ccc(N(Cc2ccccc2)c2nn[nH]n2)cc1
inactive: [2] 93 % of control | [4] 90 % of control | [6] 97 % of control

O=C(O)C1CC2CCC1C2 (stereo not given)
inactive: [13] 100 % of control | [14] 104 % of control | [15] 92 % of control

O=C1NC2(CCc3ccccc32)C(=O)O1 (stereo not given)
inactive: [2] 110 % of control | [4] 100 % of control | [6] 98 % of control

Cc1cc(=O)cc(C(=O)O)o1
inactive: dose: 75.0 mg/kg/injection, schedule: Q01DX001 (ip), vehicle: saline 107 % of control | dose: 150.0 mg/kg/injection, schedule: Q01DX001 (ip), vehicle: saline 107 % of control | dose: 300.0 mg/kg/injection, schedule: Q01DX001 (ip), vehicle: saline 109 % of control

O=C/C=C/c1cccnc1
inactive: dose: 25.0 mg/kg/injection, schedule: Q01DX009 (ip), vehicle: saline with Tween-80 92 % of control | [17] 100 % of control | [18] 101 % of control | [19] 99 % of control

C=CCOc1ccccc1C
inactive: [16] 98 % of control | [10] 95 % of control | [11] 97 % of control

CC(Br)C(=O)O (stereo not given)
inactive: [16] 94 % of control | [10] 111 % of control

C[C@]12CCC(=O)C=C1CC[C@@H]1[C@@H]2[C@@H](O)C[C@@]2(C)[C@H]1CC[C@]2(O)C(=O)COC(=O)CCC1CCCC1
inactive: dose: 50.0 mg/kg/injection, schedule: Q04DX003 (sc), vehicle: steriod suspending solution 100 % of control | dose: 100.0 mg/kg/injection, schedule: Q04DX003 (sc), vehicle: steriod suspending solution 96 % of control | dose: 200.0 mg/kg/injection, schedule: Q04DX003 (sc), vehicle: steriod suspending solution 97 % of control | dose: 400.0 mg/kg/injection, schedule: Q04DX003 (sc), vehicle: steriod suspending solution 96 % of control

CCOC(=O)Nc1ccc(Cl)cc1
inactive: [20] 89 % of control | [21] 108 % of control | [22] 108 % of control

NC(=O)Nc1ccc(Br)cc1Br
inactive: [20] 102 % of control | [21] 94 % of control

N#CC1=C(C#N)C(=O)C(c2ccccc2)=C(c2ccccc2)C1=O
inactive: dose: 5.0 mg/kg/injection, schedule: Q01DX001 (ip), vehicle: saline 97 % of control | dose: 10.0 mg/kg/injection, schedule: Q01DX001 (ip), vehicle: saline 97 % of control | dose: 20.0 mg/kg/injection, schedule: Q01DX001 (ip), vehicle: saline 101 % of control

CC(C)C(=O)c1ccc(Cl)s1
inactive: dose: 100.0 mg/kg/injection, schedule: Q04DX003 (sc), vehicle: olive oil, sesame oil, peanut oil 104 % of control | dose: 200.0 mg/kg/injection, schedule: Q04DX003 (sc), vehicle: olive oil, sesame oil, peanut oil 107 % of control | dose: 400.0 mg/kg/injection, schedule: Q04DX003 (sc), vehicle: olive oil, sesame oil, peanut oil 96 % of control

CN(C)c1ccc(N=Nc2ccc(S(=O)(=O)O)cc2)cc1
inactive: [20] 92 % of control | [21] 103 % of control | [22] 92 % of control

COC(=O)N1C=CC2C=CC1C(C#N)(C#N)C2(C#N)C#N (stereo not given)
inactive: dose: 12.5 mg/kg/injection, schedule: Q04DX002 (ip), vehicle: Klucel (hydroxypropylcellulose) (HPC) 98 % of control | dose: 25.0 mg/kg/injection, schedule: Q04DX002 (ip), vehicle: Klucel (hydroxypropylcellulose) (HPC) 98 % of control | dose: 50.0 mg/kg/injection, schedule: Q04DX002 (ip), vehicle: Klucel (hydroxypropylcellulose) (HPC) 110 % of control

COc1ccc(NC(=S)Nc2ccc(-c3ccc(NC(=S)Nc4ccc(OC)cc4)cc3)cc2)cc1
inactive: [20] 87 % of control | [21] 87 % of control

CN(C)c1ccc(N=Nc2ccc(Cl)c(Cl)c2)cc1
inactive: [17] 98 % of control | [18] 95 % of control | [19] 87 % of control
